Test results reported in article PMC6935813, “Assessment of the Aromatase Inhibitory Activity of Ma-Huang-Tang (MHT) and Its Active Compounds” (Evidence-based Complementary and Alternative Medicine : eCAM, 2019).

Tests used:
[1] = molecular target: T1, aromatase (Homo sapiens, UniProt P11511); test: Cell-free fluorescence-based aromatase inhibition assay (DBF hydrolysis); assay type: biochemical; parameters: purchased Corning (Woburn, MA, USA); conditions: DBF substrate
T1 sequence (P11511 1-503): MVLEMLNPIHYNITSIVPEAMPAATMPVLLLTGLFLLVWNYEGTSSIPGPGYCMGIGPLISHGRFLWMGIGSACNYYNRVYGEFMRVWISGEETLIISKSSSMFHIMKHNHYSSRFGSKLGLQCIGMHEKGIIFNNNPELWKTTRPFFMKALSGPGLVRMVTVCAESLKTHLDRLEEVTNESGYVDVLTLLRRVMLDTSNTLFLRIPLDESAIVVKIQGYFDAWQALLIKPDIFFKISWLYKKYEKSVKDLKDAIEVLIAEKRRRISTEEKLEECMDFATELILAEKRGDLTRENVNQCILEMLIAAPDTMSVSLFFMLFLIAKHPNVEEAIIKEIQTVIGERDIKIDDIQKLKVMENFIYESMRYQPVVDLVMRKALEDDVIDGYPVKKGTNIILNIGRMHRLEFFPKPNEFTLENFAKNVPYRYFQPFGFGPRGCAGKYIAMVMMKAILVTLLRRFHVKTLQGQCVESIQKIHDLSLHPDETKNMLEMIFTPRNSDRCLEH
Experimental: Supersomes human CYP19 was obtained from Corning (Woburn, MA, USA). Analytical-grade acetonitrile, methanol, and ultrapure water were purchased from J. T. Baker (Phillipsburg, NJ, USA). Trifluoroacetic acid was of analytical grade and was purchased from Sigma-Aldrich.
The inhibition of aromatase activity by MHT and each component was assessed by measuring the fluorescence intensity of fluorescein produced by the hydrolysis of DBF [20, 28]. […] A 100 μL mixture of aromatase and substrate (2 μM DBF, 40 pmol/mL aromatase, and 4 mg/mL albumin in 50 mM potassium phosphate, pH 7.4) was then added to the sample, and the resulting mixture was incubated for 30 min at 37°C in the dark. After the reaction, the sample was incubated with 150 μL of 2N NaOH for an additional 2 h at 37°C to remove impurities other than fluorescein. […] All experiments were performed three times at separate times.
The results are expressed as the means ± SEMs from multiple experiments. Paired Student's t-tests with Tukey's multiple comparison tests were performed to compare two groups using PRISM software (GraphPad, CA, USA). A p value <0.05 was considered to be statistically significant. Additionally, IC50 values were calculated by sigmoidal dose-response curve fitting (variable slope) using PRISM software.

[2] = molecular target: T1, aromatase; test: Cell-based aromatase assay: estrone ELISA in KGN cells given androstenedione; conditions: estrone level by ELISA; maximum con. 5 mM; read-out: Aromatase inhibition IC50 in KGN cells
Experimental: The human granulosa-like tumor cell line KGN was obtained from RIKEN BioResource Center (Ibaraki, JPN). The cells were grown in Dulbecco's modified Eagle's medium/Ham's F-12 nutrient mix (DMEM/F-12, Welgen, Daejeon, KOR) supplemented with 5% (v/v) fetal bovine serum (FBS) and 0.5% antibiotics (100 U/mL penicillin and 100 μg/mL streptomycin, Gibco BRL, NY, USA) in a humidified atmosphere of 5% CO2 at 37°C. Prior to treatment with MHT and its components in all the experiments, the cells were cultured for 24 h by switching to phenol-red free DMEM/H-12 medium (Welgen, Daejeon, KOR) with 5% (v/v) charcoal-stripped FBS (HyClone, Logan, UT, USA), and the samples were treated under the same conditions.
Cells (4 × 10^4 cells/mL) were placed on a 96-well tissue culture plate and incubated in DMEM/F-12 medium with 5% charcoal-stripped FBS (HyClone, Logan, UT, USA) overnight. After the addition of MHT or its components, the cells were incubated for 24 h. […] The estrone concentration in each of the samples was measured at 450 nm using a Synergy/HTX multimode reader (Bio-Tek Instruments Inc., VT, USA) with an estrone ELISA kit (Abnova, CA, USA), and the cell viability was measured using a CCK-8 assay (Dojindo Laboratories, Tokyo, JPN).
Additionally, IC50 values were calculated by sigmoidal dose-response curve fitting (variable slope) using PRISM software.

Row | SMILES | IC50 ([1]; maximum con. 10 mM) [µM] | IC50 [2] [µM] | IC50 ([1]; human CYP19 Supersomes) [µM]
1 | O=C/C=C/c1ccccc1 [Cinnamaldehyde (4), cinnamaldehyde] | > 10000 | – | –
2 | O=C(O)/C=C/c1ccccc1 [Cinnamic acid (3), cinnamic acid] | > 10000 | – | –
3 | O=c1ccc2ccccc2o1 [Coumarin (2), coumarin] | > 10000 | – | –
4 | CN[C@@H](C)[C@H](O)c1ccccc1 [Ephedrine (1), ephedrine] | > 10000 | – | –
5 | CC1(C)[C@@H](O[C@H]2O[C@H](C(=O)O)[C@@H](O)[C@H](O)[C@H]2O[C@@H]2O[C@H](C(=O)O)[C@@H](O)[C@H](O)[C@H]2O)CC[C@]2(C)[C@H]3C(=O)C=C4[C@@H]5C[C@@](C)(C(=O)O)CC[C@]5(C)CC[C@@]4(C)[C@]3(C)CC[C@@H]12 [Glycyrrhizin (8), glycyrrhizin] | > 10000 | – | –
6 | O=C1CC(c2ccc(O)cc2)Oc2cc(O)ccc21 (centres unmarked) [Liquiritigenin (7), liquiritigenin] | 1610 | 1410 | –
7 | O=C1C[C@@H](c2ccc(O[C@@H]3O[C@H](CO)[C@@H](O)[C@H](O)[C@H]3O)cc2)Oc2cc(O)ccc21 [Liquiritin (5), liquiritin] | – | – | 530
